Test results from patent US8796280B2, “2,3-disubstituted pyrazinesulfonamides as CRTH2 inhibitors” (Merck Serono, S.A., priority 2005, dated 2014).
pKi: −log10 of the molar value.

Key:
CRTH2 [1] = molecular target: T1, CRTH2 (Homo sapiens (Human), UniProt Q9Y5Y4); assay: Radioligand binding assay ([3H]PGD2 displacement, hCRTH2 HEK293 (EBNA) cell membranes); settings: 1.5 nM [3H]PGD2, 10 μg hCRTH2 HEK293 (EBNA) membrane protein, 60 min room temperature; test concentration not given
Text: Human CRTH2 cDNA was amplified by PCR using a human urinary bladder cDNA library as a template and specific primers containing HindIII and BamHI restriction sites for cloning into the pCEP4 vector (Invitrogen). The vector construction is described in detail in Sawyer et al., Br. J. Pharmocol 2002, 137, 1163-72. The nucleotide sequence of the cloned cDNA was identical the previously reported hCRTH2 sequence (Nagata et al, 1999, J. Immunol. 162, 1278-1286).
HEK293 (EBNA) cells were transfected with the pCEP4-hCRTH2 construct using the calcium phosphate technique. Cells were maintained in culture at 37° C. in an atmosphere of 5% CO2 in Dulbecco's modified Eagle's F12 medium (Invitrogen), containing 10% heat-inactivated foetal calf serum (TerraCell International, Canada), 2 mM Glutamine, 100 units/ml of penicillin and 100 μg/ml streptomycin (Invitrogen). 48 hours after the transfection, cells were grown in presence of 300 μg/ml of Hygromycin B (Invitrogen) for 4 weeks and antibiotic resistant cells were amplified for cell membrane preparation.
Adherent HEK293 (EBNA) cells expressing hCRTH2 were cultured in 225 cm^2 cell culture flasks (Corning, USA) in 30 ml of medium. After two rinses of phosphate buffered saline (PBS), cells were harvested in 10 ml of PBS containing 1 mM EDTA, centrifuged at 500×g for 5 min at 4° C. and frozen at −80° C. The pellet was re-suspended in 50 mM Tris-HCl, pH 7.4, 2 mM EDTA, 250 mM Sucrose, containing protease inhibitor cocktail tablets, (Complete EDTA-free, Roche, Germany) and incubated 30 min at 4° C. Cells were disrupted by nitrogen cavitation (Parr Instruments, USA) at 4° C. (800 p.s.i. for 30 min), and centrifuged at 500×g for 10 min at 4° C. Pellet containing nuclei and cellular debris was discarded and supernatant was centrifuged 60 min at 4° C. at 45000×g. Membrane pellet was re-suspended in storage buffer (10 mM HEPES/KOH pH 7.4, 1 mM EDTA, 250 mM sucrose, protease inhibitor cocktail tablets) using Dounce homogenization and frozen in liquid nitrogen, and stored at −80° C.
(§1) The inhibitory activity can be investigated by a radioligand binding assay (Sawyer et al., Br. J. Pharmocol 2002, 137, 1163-72). The radioligand binding assay was performed at room temperature in binding buffer (10 mM HEPES/KOH pH […], with protease inhibitor cocktail tablets), containing 1.5 nM [^3H]PGD2 (Amersham, 156 Cie/mmol), and 10 μg of hCRTH2 HEK293 (EBNA) cell membrane protein in a final volume of 100 μl in 96 well plates (Corning, USA). Non-specific binding was determined in the presence of 1 μM PGD2 (Cayman, USA). Competing pyrazine sulfonamides were diluted in dimethylsulphoxide so that the total volume of dimethylsulfoxide was kept constant at 1% dimethylsulphoxide (Me2SO). 10 μl of the pyrazine sulfonamides were added. Incubation (60 min at room temperature) was terminated by rapid filtration through 96 wells hydrophobic GF/C Unifilter plates (Whatman, USA). Filters were washed twice with 250 μl of Tris-HCl pH 7.4, 10 mM MnCl2, and residual radioligand bound to the filters was mixed to 100 μl of liquid scintillation cocktail (Optiphase Supermix, Perkin Elmer, USA) and binding activity was determined by counting residual radioligand using a 1450 Micro-beta scintillation counter (Wallac, UK).

CRTH2 [2] = molecular target: T1, CRTH2; assay: Determination of Ki, equilibrium competition binding against [3H]PGD2; settings: competition against [3H]PGD2; average of at least three independent dose response experiments; Ki calculated from IC50
Description: as §1
Ki values were determined by equilibrium competition binding experiments against [^3H]PGD2. Ki values were calculated from the formula below and represent the average of at least three independent dose response experiments. The Ki values give the ligand concentrations necessary to inhibit 50% of the binding of 3[H]PGD2 to CRTH2. Ki=IC50/(1+[Concentration of Ligand]/Kd)]
All experiments were performed in 96 well plates, in a final volume of 100 μl according to the above described filtration assay. The concentration of membranes and 3[H]PGD2, as well as the positive and negative controls were identical to the conditions described above.

T1 sequence (Q9Y5Y4 whole entry): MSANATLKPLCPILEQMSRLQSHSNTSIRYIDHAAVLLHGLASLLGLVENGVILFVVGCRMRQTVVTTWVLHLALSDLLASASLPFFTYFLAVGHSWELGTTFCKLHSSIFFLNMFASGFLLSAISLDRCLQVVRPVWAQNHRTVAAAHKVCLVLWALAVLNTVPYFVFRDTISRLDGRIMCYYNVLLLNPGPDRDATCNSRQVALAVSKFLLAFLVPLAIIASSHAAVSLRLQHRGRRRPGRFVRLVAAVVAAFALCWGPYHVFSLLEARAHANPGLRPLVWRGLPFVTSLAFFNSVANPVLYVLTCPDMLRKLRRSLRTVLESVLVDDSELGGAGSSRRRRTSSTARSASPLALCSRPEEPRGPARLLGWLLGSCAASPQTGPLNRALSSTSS

CN(Cc1ccc(-c2nccnc2NS(=O)(=O)c2cccs2)cc1)c1ccc(Cl)cc1 [Compound 12, N-[3-(4-{[(4-chlorophenyl)(methyl)amino]methyl}phenyl)pyrazin-2-yl]-thiophene-2-sulfonamide]
Inhibition hCRTH2 [%] (CRTH2 [1]): 65.0% | pKi (CRTH2 [2]): 5.07

O=S(=O)(Nc1nccnc1-c1ccc(Cn2ccc3ccccc32)cc1)c1ccccc1Cl [Compound 6, 2-chloro-N-{3-[4-(1H-indol-1-ylmethyl)phenyl]pyrazin-2-yl}benzene-sulfonamide]
Inhibition hCRTH2 [%] (CRTH2 [1]): 81.5% | pKi (CRTH2 [2]): 5.67

O=S(=O)(Nc1nccnc1-c1ccc(Cn2ccc3cc(F)ccc32)cc1)c1ccccc1Cl [Compound 41, 2-Chloro-N-{3-[4-(5-fluoro-indol-1-ylmethyl)-phenyl]-pyrazin-2-yl}-benzenesulfonamide]
pKi (CRTH2 [2]): 5.41

CN(Cc1ccc(-c2nccnc2NS(=O)(=O)c2ccc(C#N)cc2)cc1)c1ccc(OC(F)(F)F)cc1 [Compound 16, 4-cyano-N-{3-[4-({methyl[4-(trifluoromethoxy)phenyl]amino}-methyl)phenyl]pyrazin-2-yl}benzenesulfonamide]
Inhibition hCRTH2 [%] (CRTH2 [1]): 47.0% | pKi (CRTH2 [2]): 5.24

O=S(=O)(Nc1nccnc1-c1ccc(CNc2ccc3c(c2)OCO3)cc1)c1ccccc1C(F)(F)F [Compound 9, N-(3-{4-[(1,3-benzodioxol-5-ylamino)methyl]phenyl}pyrazin-2-yl)-2-(trifluoromethyl)benzenesulfonamide]
Inhibition hCRTH2 [%] (CRTH2 [1]): 72.5% | pKi (CRTH2 [2]): 5.53

O=S(=O)(Nc1nccnc1N1CCN(Cc2ccc3ccccc3n2)CC1)c1ccc(Oc2ccccc2)cc1 [Compound 13, 4-phenoxy-N-{3-[4-(quinolin-2-ylmethyl)piperazin-1-yl]pyrazin-2-yl}-benzenesulfonamide]
Inhibition hCRTH2 [%] (CRTH2 [1]): 64.5% | pKi (CRTH2 [2]): 5.39

COc1cccc(COCc2ccc(-c3nccnc3NS(=O)(=O)c3ccccc3C(F)(F)F)cc2)c1 [Compound 10, N-[3-(4-{[(3-methoxybenzyl)oxy]methyl}phenyl)pyrazin-2-yl]-2-(trifluoromethyl)benzenesulfonamide]
Inhibition hCRTH2 [%] (CRTH2 [1]): 72.0% | pKi (CRTH2 [2]): 5.85

CN(Cc1ccc(-c2nccnc2NS(=O)(=O)c2cccc(Cl)c2)cc1)c1ccc(OC(F)(F)F)cc1 [Compound 11, 3-chloro-N-{3-[4-({methyl[4-(trifluoromethoxy)phenyl]amino}methyl)phenyl]pyrazin-2-yl}benzenesulfonamide]
Inhibition hCRTH2 [%] (CRTH2 [1]): 65.0% | pKi (CRTH2 [2]): 5.29

CN(Cc1ccc(-c2nccnc2NS(=O)(=O)c2ccccc2Cl)cc1)c1ccccc1F [Compound 42, 2-Chloro-N-[3-(4-{[(2-fluoro-phenyl)-methyl-amino]-methyl}-phenyl)-pyrazin-2-yl]-benzenesulfonamide]
pKi (CRTH2 [2]): 5.41

CCN(Cc1ccc(-c2nccnc2NS(=O)(=O)c2ccccc2Cl)cc1)c1ccccn1 [Compound 45, 2-Chloro-N-(3-{4-[(ethyl-pyridin-2-yl-amino)-methyl]-phenyl}-pyrazin-2-yl)-benzenesulfonamide]
pKi (CRTH2 [2]): 5.35

CN(Cc1ccc(-c2nccnc2NS(=O)(=O)c2ccccc2C(F)(F)F)cc1)c1ccc(F)cc1 [Compound 17, N-[3-(4-{[(4-Fluoro-phenyl)-methyl-amino]-methyl}-phenyl)-pyrazin-2-yl]-2-trifluoromethyl-benzenesulfonamide]
pKi (CRTH2 [2]): 6.42

CN(Cc1ccc(-c2nccnc2NS(=O)(=O)c2ccccc2Cl)cc1)c1ccccc1 [Compound 4, 2-chloro-N-[3-(4-{[methyl(phenyl)amino]methyl}phenyl)pyrazin-2-yl]-benzenesulfonamide]
Inhibition hCRTH2 [%] (CRTH2 [1]): 84.5% | pKi (CRTH2 [2]): 5.80

O=S(=O)(Nc1nccnc1-c1ccc(COc2ccc3c(c2)CCCC3)cc1)c1ccccc1Cl [Compound 7, 2-chloro-N-(3-{4-[(5,6,7,8-tetrahydronaphthalen-2-yloxy)methyl]-phenyl}-pyrazin-2-yl)benzenesulfonamide]
Inhibition hCRTH2 [%] (CRTH2 [1]): 80.0% | pKi (CRTH2 [2]): 5.59

Cc1cc2ccccc2n1Cc1ccc(-c2nccnc2NS(=O)(=O)c2ccccc2Cl)cc1 [Compound 43, 2-Chloro-N-{3-[4-(2-methyl-indol-1-ylmethyl)-phenyl]-pyrazin-2-yl}-benzenesulfonamide]
pKi (CRTH2 [2]): 5.39

CCc1nc2ccccc2n1Cc1ccc(-c2nccnc2NS(=O)(=O)c2ccccc2Cl)cc1 [Compound 8, 2-chloro-N-(3-{4-[(2-ethyl-1H-benzimidazol-1-yl)methyl]phenyl}pyrazin-2-yl)benzenesulfonamide]
Inhibition hCRTH2 [%] (CRTH2 [1]): 79.0% | pKi (CRTH2 [2]): 5.85

CN(Cc1ccc(-c2nccnc2NS(=O)(=O)c2ccc(Cl)cc2)cc1)c1ccccc1 [Compound 15, 4-chloro-N-[3-(4-{[methyl(phenyl)amino]methyl}phenyl)pyrazin-2-yl]-benzenesulfonamide]
Inhibition hCRTH2 [%] (CRTH2 [1]): 51.0% | pKi (CRTH2 [2]): 5.27

O=S(=O)(Nc1nccnc1-c1ccc(COc2ccc3ccccc3c2)cc1)c1ccccc1Cl [Compound 5, 2-chloro-N-(3-{4-[(2-naphthyloxy)methyl]phenyl}pyrazin-2-yl)benzene-sulfonamide]
Inhibition hCRTH2 [%] (CRTH2 [1]): 82.0% | pKi (CRTH2 [2]): 5.63

Cc1ccc(S(=O)(=O)Nc2nccnc2-c2ccc(CN(C)c3ccc(OC(F)(F)F)cc3)cc2)cc1 [Compound 14, 4-methyl-N-{3-[4-({methyl[4-(trifluoromethoxy)phenyl]amino}-methyl)phenyl]pyrazin-2-yl}benzenesulfonamide]
Inhibition hCRTH2 [%] (CRTH2 [1]): 53.0% | pKi (CRTH2 [2]): 5.23

CN(Cc1ccc(-c2nccnc2NS(=O)(=O)c2ccccc2C(F)(F)F)cc1)c1ccccc1 [Compound 18, N-(3-{4-[(Methyl-phenyl-amino)-methyl]-phenyl}-pyrazin-2-yl)-2-trifluoromethyl-benzenesulfonamide]
pKi (CRTH2 [2]): 6.40
